Patent publication US10774083B2, “Heterocyclic amide compound” (TAKEDA PHARMACEUTICAL COMPANY LIMITED, priority 2016, dated 2020)

Target: T1, human PRS protein (His-Avi-hEPRS (998-1512)) (Homo sapiens, UniProt P07814)
T1 construct: to construct His-Avi-hEPRS (998-1512) expression plasmid; His tag (N); Avi tag (N); TEV cleavage site (ENLYFQG, then S; inferred from the forward primer hEPRS-TEV-NheF) (N); made in house; host or cells: E. coli BL21(DE3)
T1 sequence (P07814 998-1512 limits assumed): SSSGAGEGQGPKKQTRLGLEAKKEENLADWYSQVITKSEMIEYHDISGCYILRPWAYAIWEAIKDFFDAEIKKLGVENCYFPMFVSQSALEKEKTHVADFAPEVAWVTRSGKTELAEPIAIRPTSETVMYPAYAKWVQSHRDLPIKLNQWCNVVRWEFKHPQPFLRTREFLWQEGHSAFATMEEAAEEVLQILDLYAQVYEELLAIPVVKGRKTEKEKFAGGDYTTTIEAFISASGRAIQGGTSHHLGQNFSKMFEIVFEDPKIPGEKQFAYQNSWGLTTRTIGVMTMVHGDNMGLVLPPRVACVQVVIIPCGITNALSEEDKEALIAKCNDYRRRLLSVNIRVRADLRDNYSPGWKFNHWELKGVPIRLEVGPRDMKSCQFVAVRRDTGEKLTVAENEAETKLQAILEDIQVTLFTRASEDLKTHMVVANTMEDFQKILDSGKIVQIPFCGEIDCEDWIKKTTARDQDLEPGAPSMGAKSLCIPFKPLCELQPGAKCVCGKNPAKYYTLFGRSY
Experiment: PRS inhibitory activity ([32P]pyrophosphate exchange enzyme assay)
Assay type: biochemical
Settings: 300 nM test compound; read-out: inhibitory rate (%) of PRS
Summary of the method: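 Compound was pre-incubated 60 min with 40 nM His-Avi-hEPRS (998-1512) (stock, E. coli-expressed) in Tris pH 7.5/KCl/DTT/Tween/MgCl2. Reaction began with substrate mix containing 300 μM ATP, 160 μM L-proline, 400 μM [32P]pyrophosphate (stock levels) and ran 30 min at room temperature. Charcoal-bound radioactivity was counted; inhibition was relative to no-reaction control.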

inhibition at 0.3 µM: 101%
Structure (SMILES): Cc1cc(N2CC[C@@](C#N)(C3CC3)C2=O)cc(C(=O)NCc2cc(F)cc(-c3cnn(C)c3)c2)n1 [Example 159, 4-((3S)-3-cyano-3-cyclopropyl-2-oxopyrrolidin-1-yl)-N-(3-fluoro-5-(1-methyl-1H-pyrazol-4-yl)benzyl)-6-methylpyridine-2-carboxamide]
